# Where “and” joins values, the source holds several entries; their conditions need not be identical. Equal values may be shown once. Entries after “also recorded” stand apart in the source; their conditions may differ.
# How the values were obtained:
# [1] = test system: MRSA colonization in the nares; experiment: Human study Part One: nasal colonization of MRSA, NOVEON laser alone, with H2O2 or with topical erythromycin; type: in vivo, Staphylococcus aureus; settings: for MRSA Average: per patient, mean of triplicate plates, all arms with NOVEON laser
# Procedure: (§1) This investigational protocol was an open-label study of subjects who are colonized with MRSA in the nares (nostril). The study was done in two parts.
# (§2) In this human study, three arms were produced. […] This was done on day 1 and again on day three; and Arm #3: ⅓ of the subjects were treated with the laser and then a topical antibiotic three times a day for five days. Prior to enrollment in this study, prospective subjects met all of the following criteria: age≧18 years and ≦70 years of age; previous positive MRSA culture; negative urine pregnancy test or post-menopausal for one year; willing to comply with study requirements, including return visits and self-application of topical antibiotics; and willing to provide informed consent to participate. Prospective subjects were excluded from this study if any of the following criteria were met: pregnancy; patients who are severely immunocompromised (such as may occur in AIDS, renal transplant regimens, immunosuppressed states consequent to malignancy or agents used in rendering oncologic care, or who suffer from end stage renal disease); diabetic patients; allergy to antimicrobials being used in the study (group 3).
# (§3) All participants underwent an initial quantitative assessment for nasal carriage of S. aureus, during their first visit. Each participant had the anterior nares (each nostril) sampled for culture with a circular movement (three rotations on each side) of a sterile wood applicator plain Rayon® tipped swab in each nostril and placed in a labeled tube. 2 ml of room temp phosphate buffered saline was placed in the tube after the removal of the swab (to completely cover the swab in the tube). Each swab was then placed back in the tube and the tube was then vortexed for 15 seconds to disperse isolates of MRSA and/or MSSA into the PBS solution. Aliquots of PBS from the tube were plated in the following manner: 100 μl from each tube was lawn plated in triplicate (3×) on selective Chromogenic MRSA And MSSA agar. Plates were placed in incubator within 30 minutes of the plating procedure, and colonies were counted manually, and recorded 18 hrs after plating.
# (§4) On day one of the study, all subjects underwent this exact procedure in arms 1 and 2 of the study two minutes before the laser procedure. They again were sampled in the same manner 2 minutes after the laser procedure. In the third arm of the study, they were swabbed two minutes before the procedure and the first antibiotic administration was completed after the laser therapy. The post/laser swab sample was taken for this arm 20 min later.
# (§5) On day three of the study, all subjects from arms one two and three underwent the exact same procedures as day 1 of the study.
# (§6) On day five all subjects from all arms underwent just one swabbing per nostril with the exact same sampling procedure one time.
# (§7) 3% OTC hydrogen peroxide was applied to a cotton pledget for application to the subject prior to irradiation. This was inserted in the nose for 120 seconds and then removed. The subjects were then given doses of phototherapeutic near infrared radiation as described.
# (§8) The subjects were first given doses of phototherapeutic near infrared radiation as described. […] The swab was inserted approximately 1 cm in to the anterior nares and rotated 360 degrees several times and removed. Patients were instructed to perform the exact application procedure 3 times a day for the remaining 5 days.
# (§9) The NOVEON™ laser was used for two (2) six-minute treatments in each nostril on day (1) and day (3) of the study.
# (§10) The laser was calibrated before the first treatment of the day. Intermittent temperature testing of the treatment site was performed on each subject using a noncontact infrared thermometer (Raytek Minitemp), 30-60 second intervals. If a temperature of 110 F degrees was reached, or the patient complained of pain, the laser treatment was interrupted and only resumed when the patient was comfortable.
# [2] = test system: MSSA colonies in the nares; experiment: Human study Part One: nasal colonization of MSSA, NOVEON laser alone, with H2O2 or with topical erythromycin; type: in vivo, Staphylococcus aureus; settings: per patient, mean of triplicate plates, all arms with NOVEON laser
# Procedure: as §1, §2, §3, §4, §5, §6, §7, §8, §9, §10
# [3] = test system: MRSA; experiment: MRSA CFU counts on agar with trimethoprim or erythromycin after sub-lethal NIMELS laser (Example VIII); type: cell-based, Staphylococcus aureus; settings: plates B-4 1 to 5
# From the text: The following illustrates the general antibacterial methods according to the invention, using a MRSA model for the in vitro Experiments V and VIII-XII.
# a) μ1 is sub-lethal dosimetry from the NIMEL laser system on MRSA as a control and;
# [4] = test system: MRSA; experiment: MRSA/antimicrobial potentiation Experiment 4: CFU with or without methicillin, penicillin G or erythromycin, groups A4 to F4; type: cell-based, Staphylococcus aureus; settings: for Laser Effect (+Drug): ratio of AVG Exp with drug to Cont with drug; for Drug Effect / Fold increase in antibiotic sensitivity: 0.5 μg/ml penicillin G; for Drug Effect: ratio of AVG with drug to without drug; for AVG (CFU) / CFU/ml / CFU: agar with 0.5 μg/ml penicillin G
# Procedure: Two different laser dosages based on an effective dose established in previous experiments were used to treat a saline-suspension of logarithmically growing MRSA, labeled A4 to F4.
# After 24 hrs of growth at 37° C. colonies were counted.
# [5] = Initial Analysis, Post-treatment swab, left nostril
# [6] = Initial Analysis, Post-treatment swab, right nostril
# [7] = Initial Analysis, Pre swab, left nostril
# [8] = Initial Analysis, Pre swab, right nostril
# [9] = Second Analysis, Post-treatment swab, left nostril
# [10] = Second Analysis, Post-treatment swab, right nostril
# [11] = Second Analysis, Pre swab, left nostril
# [12] = Second Analysis, Pre swab, right nostril
# [13] = Third Analysis, Swab, left nostril
# [14] = Third Analysis, Swab, right nostril
compound,measurement,setting,value
OO [Peroxide],MRSA Average,[1]; [5],0 CFU (2×) and 22 CFU and 1 CFU
same,MRSA Average,[1]; [6],0 CFU (2×) and 455 CFU and 2752 CFU
same,MRSA Average,[1]; [7],0 CFU (2×) and 63 CFU and 4 CFU
same,MRSA Average,[1]; [8],0 CFU (2×) and 30 CFU and 4032 CFU
same,MRSA Average,[1]; [9],0 CFU (3×) and 12 CFU
same,MRSA Average,[1]; [10],0 CFU (2×) and 114 CFU and 3347 CFU
same,MRSA Average,[1]; [11],0 CFU (2×) and 180 CFU and 17 CFU
same,MRSA Average,[1]; [12],0 CFU (2×) and 90 CFU and 3099 CFU
same,MRSA Average,[1]; [13],0 CFU (3×) and 827 CFU
same,MRSA Average,[1]; [14],0 CFU (2×) and 563 CFU and 3648 CFU
same,s. aureus Average,[2]; [5],0 CFU (2×) and 20 CFU and 1 CFU
same,s. aureus Average,[2]; [6],0 CFU and 506 CFU and 146 CFU and 3272 CFU
same,s. aureus Average,[2]; [7],1 CFU and 53 CFU and 17 CFU and 124 CFU
same,s. aureus Average,[2]; [8],0 CFU and 29 CFU and 285 CFU and 3996 CFU
same,s. aureus Average,[2]; [9],0 CFU (3×) and 10 CFU
same,s. aureus Average,[2]; [10],0 CFU and 126 CFU and 5 CFU and 3589 CFU
same,s. aureus Average,[2]; [11],1 CFU and 206 CFU and 4 CFU and 12 CFU
same,s. aureus Average,[2]; [12],1 CFU and 94 CFU and 257 CFU and 4373 CFU
same,s. aureus Average,[2]; [13],1 CFU and 868 CFU and 28 CFU and 0 CFU
same,s. aureus Average,[2]; [14],1 CFU and 586 CFU and 52 CFU and 3493 CFU
COc1cc(Cc2cnc(N)nc2N)cc(OC)c1OC [Trimethoprim],"MRSA colony count, CONTROL (no laser), trimeth 2 ug/ml","[3]; no laser, agar with trimethoprim 2 ug/ml",145 and 213 and 198 and 240 and 220
same,"MRSA colony count, EXPERIMENTAL, trimeth 2 ug/ml","[3]; sub-lethal NIMELS laser, then plated on agar with trimethoprim 2 ug/ml",100 and 110
"OO [H2O2, hydrogen peroxide]",outcome of the Laser plus H2O2 arm (in words),"[1]; human subjects, 3% hydrogen peroxide in the nose for 120 seconds, then laser, day 1 and day 3","may have had some transient benefit in some of the patients, but no obvious long-term efficacy"
Penicillin,Laser Effect (+Drug),"[4]; Group C4, 0.5 μg/ml penicillin G",0.28
same,Drug Effect,"[4]; Group C4, Cont (no laser)",0.75
same,AVG (CFU),"[4]; Group C4, Cont (no laser)",108.4 CFU
same,CFU/ml,"[4]; Group C4, Cont (no laser)",3.25E+08 CFU/ml
same,CFU,"[4]; Group C4, Cont (no laser), replicate plates 1-5, 24 hrs 37° C.",106 CFU and 99 CFU and 102 CFU and 113 CFU and 122 CFU
same,Drug Effect,"[4]; Group C4, Exp (laser treated)",0.34
same,AVG (CFU),"[4]; Group C4, Exp (laser treated)",30.4 CFU
same,CFU/ml,"[4]; Group C4, Exp (laser treated)",9.12E+07 CFU/ml
same,CFU,"[4]; Group C4, Exp (laser treated), replicate plates 1-5",25 CFU and 33 CFU (2×) and 19 CFU and 42 CFU
same,Laser Effect (+Drug),"[4]; Group D4, 0.5 μg/ml penicillin G",0.18
same,Drug Effect,"[4]; Group D4, Cont (no laser)",1.07
same,AVG (CFU),"[4]; Group D4, Cont (no laser)",132.8 CFU
same,CFU/ml,"[4]; Group D4, Cont (no laser)",3.98E+08 CFU/ml
same,CFU,"[4]; Group D4, Cont (no laser), replicate plates 1-5, 24 hrs 37° C.",101 CFU and 111 CFU and 138 CFU and 132 CFU and 182 CFU
same,Drug Effect,"[4]; Group D4, Exp (laser treated)",0.31
same,AVG (CFU),"[4]; Group D4, Exp (laser treated)",23.8 CFU
same,CFU/ml,"[4]; Group D4, Exp (laser treated)",7.14E+07 CFU/ml
same,CFU,"[4]; Group D4, Exp (laser treated), replicate plates 1-5",14 CFU and 23 CFU and 22 CFU and 29 CFU and 31 CFU
same,Fold increase in antibiotic sensitivity,[4]; grouping C4,2.21
same,Fold increase in antibiotic sensitivity,[4]; grouping D4,3.45
same,synergy or potentiation with NIMELS in growth inhibition of MRSA colonies (in words),"[4]; sub-lethal NIMELS dosimetry, bar chart figure",synergistic effects; also recorded: potentiated by sub-lethal NIMELS dosimetry
same,reversal of MRSA resistance in vitro by dual wavelength NOVEON laser (in words),[4]; temperature levels not lethal to the organism,successful reversal of MRSA resistance

# — US8983257B2, “Therapeutic light delivery apparatus, method, and system” (Nomir Medical Technologies, Inc., priority 2002, dated 2015)
